Measurements reported in US10689354B2, “Aminoazole derivative” (Teijin Pharma Limited, priority 2015, dated 2020).

Tests used:
[1] = target: T1, androgen receptor (AR-LBD) (Rattus norvegicus, UniProt P15207); assay: Evaluation of androgen receptor affinity (PolarScreen Androgen Receptor Competitor Assay Kit, Red; fluorescence polarization); conditions: 22° C. for 5 hours, relative to binding rate of 1 μM DHT, read-out: AR affinity (pEC50) (converted)
T1 construct: 5 μL of 2×AR-LBD/Fluoromone AL Red Complex contained in the kit; purchased Invitrogen
T1 sequence (P15207 651-882 limits assumed): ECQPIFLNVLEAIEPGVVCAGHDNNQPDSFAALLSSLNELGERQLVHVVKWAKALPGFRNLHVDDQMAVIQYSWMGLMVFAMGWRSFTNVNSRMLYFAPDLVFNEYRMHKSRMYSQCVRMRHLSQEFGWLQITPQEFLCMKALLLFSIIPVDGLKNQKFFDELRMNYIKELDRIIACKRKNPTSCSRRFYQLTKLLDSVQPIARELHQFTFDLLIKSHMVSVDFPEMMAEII
Procedure, shortened: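 Fluorescence polarization read-out after 5 h at 22° C of compound with a red-fluorophore-labelled AR-LBD complex. Displacement is scaled against 1 μM DHT, and the log reciprocal of the concentration reaching half that effect gives pEC50 via four-parameter curve fitting.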

[2] = target: T2, human androgen receptor (Homo sapiens, UniProt P10275); assay: Reporter assay of an androgen receptor responsive sequence (luciferase, transiently transfected HEK293 cells); type: cell-based; conditions: 24 hours incubation, relative to activity of 100 nM DHT, read-out: AR transcriptive activity (pEC50) (converted)
T2 construct: expressed in transfected cells; host or cells: HEK293
T2 sequence (P10275 1-920): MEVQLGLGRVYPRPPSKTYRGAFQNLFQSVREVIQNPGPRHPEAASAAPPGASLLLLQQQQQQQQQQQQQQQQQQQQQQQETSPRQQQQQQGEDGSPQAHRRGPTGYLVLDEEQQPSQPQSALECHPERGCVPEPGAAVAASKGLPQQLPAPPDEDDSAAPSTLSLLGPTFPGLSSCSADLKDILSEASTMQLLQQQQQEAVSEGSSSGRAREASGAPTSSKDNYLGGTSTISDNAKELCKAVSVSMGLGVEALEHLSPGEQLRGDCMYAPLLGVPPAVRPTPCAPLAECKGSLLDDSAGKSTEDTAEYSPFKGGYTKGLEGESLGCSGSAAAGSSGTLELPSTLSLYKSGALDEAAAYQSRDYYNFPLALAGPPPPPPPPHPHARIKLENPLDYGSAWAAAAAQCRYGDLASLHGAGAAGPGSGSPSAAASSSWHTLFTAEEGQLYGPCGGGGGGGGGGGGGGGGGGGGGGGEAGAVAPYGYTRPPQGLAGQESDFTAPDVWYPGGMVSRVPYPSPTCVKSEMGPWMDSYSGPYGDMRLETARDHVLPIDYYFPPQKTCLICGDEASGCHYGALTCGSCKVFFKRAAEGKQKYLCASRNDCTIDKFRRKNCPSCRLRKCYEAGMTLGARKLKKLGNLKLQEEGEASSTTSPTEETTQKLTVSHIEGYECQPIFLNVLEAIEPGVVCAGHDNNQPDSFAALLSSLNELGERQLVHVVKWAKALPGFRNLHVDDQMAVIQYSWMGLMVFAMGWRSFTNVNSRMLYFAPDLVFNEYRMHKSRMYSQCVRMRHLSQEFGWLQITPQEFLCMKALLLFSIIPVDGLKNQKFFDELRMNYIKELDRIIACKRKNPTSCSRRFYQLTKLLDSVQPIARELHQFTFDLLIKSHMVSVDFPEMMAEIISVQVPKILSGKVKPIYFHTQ
Procedure, shortened: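 HEK293 cells transiently transfected for 3 h with ARE-firefly luciferase, full-length human AR and TK-Renilla plasmids, then exposed to compound for 24 h at 37 °C in 5% charcoal-treated FBS/DMEM. Dual-Glo luminescence read; pEC50 from 4-parameter fit relative to 100 nM DHT.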

Compound	EC50 [1] [nM]	EC50 [2] [nM]
Cc1sc(N(Cc2ccc(C(F)(F)F)nc2)c2ccc(C#N)cc2)nc1C(=O)NS(C)(=O)=O [Compound 154, 2-[4-cyano-N-[[6-(trifluoromethyl)-3-pyridyl]methyl]anilino]-5-methyl-N-methylsulfonyl-thiazole-4-carboxamide]	200	200
Cc1sc(N(CCc2ccc(C(F)(F)F)cc2)Cc2ccccc2)nc1C(=O)NS(C)(=O)=O [Compound 333, 2-[benzyl-[2-[4-(trifluoromethyl)phenyl]ethyl]amino]-5-methyl-N-methylsulfonyl-thiazole-4-carboxamide]	25.1	100
Cc1sc(N(CCc2ccc(Cl)cc2)Cc2cccc(OC(F)(F)F)c2)nc1C(=O)NS(C)(=O)=O [Compound 145, 2-[2-(4-chlorophenyl)ethyl-[[3-(trifluoromethoxy)phenyl]methyl]amino]-5-methyl-N-methylsulfonyl-thiazole-4-carboxamide]	50.1	316
COCCCS(=O)(=O)NC(=O)c1nc(N(Cc2ccc(C(F)(F)F)nc2)c2ccc(C#N)cc2)sc1C1CC1 [Compound 663, 2-[4-cyano-N-[[6-(trifluoromethyl)-3-pyridyl]methyl]anilino]-5-cyclopropyl-N-(3-methoxypropylsulfonyl)thiazole-4-carboxamide]	251	> 10000
COCCCS(=O)(=O)NC(=O)c1nc(N(Cc2ccc(C(F)(F)F)c(C#N)c2)c2ccc(C#N)cc2)sc1C [Compound 534, 2-[4-cyano-N-[[3-cyano-4-(trifluoromethyl)phenyl]methyl]anilino]-N-(3-methoxypropylsulfonyl)-5-methyl-thiazole-4-carboxamide]	100	158
Cc1sc(N(CC2CCC(F)(F)CC2)c2ccc(C#N)cc2)nc1C(=O)NS(C)(=O)=O [Compound 39, 2-[4-cyano-N-[(4,4-difluorocyclohexyl)methyl]anilino]-5-methyl-N-methylsulfonyl-thiazole-4-carboxamide]	251	1260
Cc1oc(N(CCc2ccccc2)c2ccc(C#N)cc2)nc1C(=O)NS(C)(=O)=O [Compound 625, 2-[4-cyano-N-(2-phenylethyl)anilino]-5-methyl-N-methylsulfonyl-oxazole-4-carboxamide]	251	3980
Cc1oc(N(CCc2ccc(Cl)cc2)Cc2ccc3ncsc3c2)nc1C(=O)NS(C)(=O)=O [Compound 545, 2-[1,3-benzothiazol-6-ylmethyl-[2-(4-chlorophenyl)ethyl]amino]-5-methyl-N-methylsulfonyl-oxazole-4-carboxamide]	39.8	158
Cc1sc(N(CCc2cccc(F)c2)c2ccc(C#N)cc2)nc1C(=O)NS(C)(=O)=O [Compound 83, 2-[4-cyano-N-[2-(3-fluorophenyl)ethyl]anilino]-5-methyl-N-methylsulfonyl-thiazole-4-carboxamide]	126	2510
Cc1sc(N(Cc2ccccc2)c2ccc(C#N)c(F)c2)nc1C(=O)NS(C)(=O)=O [Example 222, 2-(N-benzyl-4-cyano-3-fluoro-anilino)-5-methyl-N-methylsulfonyl-thiazole-4-carboxamide]	200	251
COCCCS(=O)(=O)NC(=O)c1nc(N(Cc2ccc(Br)cn2)c2ccc(C#N)cc2)sc1C [Example 188, 2-[N-[(5-bromo-2-pyridyl)methyl]-4-cyano-anilino]-N-(3-methoxypropylsulfonyl)-5-methyl-thiazole-4-carboxamide]	316	200
Cc1sc(N(Cc2cccc(OCc3ccccc3)c2)c2ccc(C#N)cc2)nc1C(=O)NS(C)(=O)=O [Compound 59, 2-[N-[(3-benzyloxyphenyl)methyl]-4-cyano-anilino]-5-methyl-N-methylsulfonyl-thiazole-4-carboxamide]	31.6	> 10000
Cc1sc(N(CCCC2CCCC2)c2ccc(C#N)cc2)nc1C(=O)NS(C)(=O)=O [Compound 485, 2-[4-cyano-N-(3-cyclopentylpropyl)anilino]-5-methyl-N-methylsulfonyl-thiazole-4-carboxamide]	20	126
COCCCS(=O)(=O)NC(=O)c1nc(N(Cc2cc(OC(F)F)ccc2F)c2ccc(C#N)cc2)sc1C [Compound 521, 2-[4-cyano-N-[[5-(difluoromethoxy)-2-fluoro-phenyl]methyl]anilino]-N-(3-methoxypropylsulfonyl)-5-methyl-thiazole-4-carboxamide]	31.6	1260
CCc1oc(N(Cc2ccc(Cl)cc2)c2ccc(C#N)cc2)nc1C(=O)NS(C)(=O)=O [Compound 623, 2-[N-[(4-chlorophenyl)methyl]-4-cyano-anilino]-5-ethyl-N-methylsulfonyl-oxazole-4-carboxamide]	31.6	158
CS(=O)(=O)NC(=O)c1nc(N(Cc2ccccc2)c2ccc(C#N)cc2)sc1C1CC1 [Compound 660, 2-(N-benzyl-4-cyano-anilino)-5-cyclopropyl-N-methylsulfonyl-thiazole-4-carboxamide]	79.4	> 10000
Cc1sc(N(Cc2ccc(F)cc2Br)c2ccc(C#N)cc2)nc1C(=O)NS(C)(=O)=O [Example 177, 2-[N-[(2-bromo-4-fluoro-phenyl)methyl]-4-cyano-anilino]-5-methyl-N-methylsulfonyl-thiazole-4-carboxamide]	79.4	501
Cc1sc(N(CCc2ccc(Cl)cc2)CC2CCCCC2)nc1C(=O)NS(=O)(=O)Cc1cccnc1 [Compound 699, 2-[2-(4-chlorophenyl)ethyl-(cyclohexylmethyl)amino]-5-methyl-N-(3-pyridylmethylsulfonyl)thiazole-4-carboxamide]	63.1	> 10000
COc1ccc(CN(c2ccc(C#N)cc2)c2nc(C(=O)NS(C)(=O)=O)c(C)s2)nc1 [Compound 515, 2-[4-cyano-N-[(5-methoxy-2-pyridyl)methyl]anilino]-5-methyl-N-methylsulfonyl-thiazole-4-carboxamide]	794	501
Cc1sc(N(CC2CCCCCC2)c2ccc(C#N)cc2)nc1C(=O)NS(C)(=O)=O [Compound 365, 2-[4-cyano-N-(cycloheptylmethyl)anilino]-5-methyl-N-methylsulfonyl-thiazole-4-carboxamide]	25.1	631
COc1cccc(CCN(Cc2ccccc2)c2nc(C(=O)NS(C)(=O)=O)c(C)s2)c1 [Example 308, 2-[benzyl-[2-(3-methoxyphenyl)ethyl]amino]-5-methyl-N-methylsulfonyl-thiazole-4-carboxamide]	79.4	5010
Cc1sc(N(Cc2ccc(Br)cn2)c2ccc(C#N)cc2)nc1C(=O)NS(C)(=O)=O [Compound 153, 2-[N-[(5-bromo-2-pyridyl)methyl]-4-cyano-anilino]-5-methyl-N-methylsulfonyl-thiazole-4-carboxamide]	100	50.1
Cc1oc(N(Cc2ccc(OC(F)(F)F)cc2)c2ccc(C#N)cc2)nc1C(=O)NS(C)(=O)=O [Compound 607, 2-[4-cyano-N-[[4-(trifluoromethoxy)phenyl]methyl]anilino]-5-methyl-N-methylsulfonyl-oxazole-4-carboxamide]	39.8	5010
COCCOc1ccc(CN(c2ccc(C#N)cc2)c2nc(C(=O)NS(C)(=O)=O)c(C)s2)cc1 [Compound 566, 2-[4-cyano-N-[[4-(2-methoxyethoxy)phenyl]methyl]anilino]-5-methyl-N-methylsulfonyl-thiazole-4-carboxamide]	200	1580
